# Source: ChEMBL document CHEMBL1132777, “Novel, potent and selective chimeric FXa inhibitors featuring hydrophobic P1-ketoamide moieties” (Bioorg Med Chem Lett, 2000)
# Molecular target: T1, Serine protease 1 (Homo sapiens, UniProt P07477)
# Assay: In vitro inhibitory activity against Human trypsin; inactive; call rule not given here
# T1 sequence (P07477 whole entry): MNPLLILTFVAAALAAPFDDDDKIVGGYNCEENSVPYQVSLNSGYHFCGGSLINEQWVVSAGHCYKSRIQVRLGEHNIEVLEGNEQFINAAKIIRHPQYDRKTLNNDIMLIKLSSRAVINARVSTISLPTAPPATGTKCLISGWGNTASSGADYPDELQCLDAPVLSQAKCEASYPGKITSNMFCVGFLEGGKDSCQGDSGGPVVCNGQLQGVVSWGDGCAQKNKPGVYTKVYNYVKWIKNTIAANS
row,Compound,IC50
1,CCOC(=O)CNC(=O)C(=O)[C@H](CC1CCCCC1)NC(=O)CN(C)C(=O)[C@@H](CCCN=C(N)N)NS(=O)(=O)Cc1ccccc1,Not Active
2,CCOC(=O)CNC(=O)C(=O)[C@H](Cc1ccc(OC(C)(C)C)cc1)NC(=O)CN(C)C(=O)[C@@H](CCCN=C(N)N)NS(=O)(=O)Cc1ccccc1.O=C(O)C(F)(F)F,Not Active
3,CCOC(=O)CNC(=O)C(=O)[C@H](Cc1ccc(O)cc1)NC(=O)CN(C)C(=O)[C@@H](CCCN=C(N)N)NS(=O)(=O)Cc1ccccc1.O=C(O)C(F)(F)F,Not Active
4,CN(CC(=O)N[C@@H](Cc1ccccc1)C(=O)C(=O)NCC(=O)NCCc1ccccc1)C(=O)[C@@H](CCCN=C(N)N)NS(=O)(=O)Cc1ccccc1.O=C(O)C(F)(F)F,Not Active
5,CN(CC(=O)N[C@@H](CC1CCCCC1)C(=O)C(=O)NCc1ccc2c(c1)OCO2)C(=O)[C@@H](CC/N=C(\N)N[N+](=O)[O-])NS(=O)(=O)Cc1ccccc1,Not Active

# Molecular target: T2, Coagulation factor X (Homo sapiens, UniProt P00742)
# Assay: Inhibitory activity against Coagulation factor X
# Target sequence in this assay (P00742 41-179 limits assumed): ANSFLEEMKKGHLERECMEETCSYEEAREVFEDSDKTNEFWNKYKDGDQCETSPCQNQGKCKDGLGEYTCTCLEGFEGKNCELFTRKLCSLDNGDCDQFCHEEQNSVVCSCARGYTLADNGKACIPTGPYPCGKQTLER
# Target sequence in this assay (P00742 235-488 limits assumed): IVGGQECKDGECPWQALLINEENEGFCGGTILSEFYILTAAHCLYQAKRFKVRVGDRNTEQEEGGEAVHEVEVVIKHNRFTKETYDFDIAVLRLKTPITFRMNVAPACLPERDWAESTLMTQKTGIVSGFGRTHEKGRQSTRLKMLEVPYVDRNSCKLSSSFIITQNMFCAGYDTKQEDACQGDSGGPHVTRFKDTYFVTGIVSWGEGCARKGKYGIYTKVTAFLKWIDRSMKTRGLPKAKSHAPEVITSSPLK
row,Compound,IC50 [nM]
1,CCCCCNC(=O)C(=O)[C@H](CC1CCCCC1)NC(=O)CN(C)C(=O)[C@@H](CCCN=C(N)N)NS(=O)(=O)Cc1ccccc1,1.87
2,CCOC(=O)CNC(=O)C(=O)[C@H](CC1CCCCC1)NC(=O)CN(C)C(=O)[C@@H](CCCN=C(N)N)NS(=O)(=O)Cc1ccccc1,2.13
3,CCOC(=O)CNC(=O)C(=O)[C@H](Cc1ccccc1)NC(=O)CN(C)C(=O)[C@@H](CCCN=C(N)N)NS(=O)(=O)Cc1ccccc1,6.6
4,CCOC(=O)CNC(=O)C(=O)[C@H](Cc1ccc(OC(C)(C)C)cc1)NC(=O)CN(C)C(=O)[C@@H](CCCN=C(N)N)NS(=O)(=O)Cc1ccccc1.O=C(O)C(F)(F)F,246
5,CN(CC(=O)N[C@H]1CCCC(C(=N)N)C1O)C(=O)[C@@H](CCCN=C(N)N)NS(=O)(=O)Cc1ccccc1 (some centres undefined),0.86
6,CCOC(=O)CNC(=O)C(=O)[C@H](Cc1ccc(O)cc1)NC(=O)CN(C)C(=O)[C@@H](CCCN=C(N)N)NS(=O)(=O)Cc1ccccc1.O=C(O)C(F)(F)F,7.63
7,CN(CC(=O)N[C@@H](Cc1ccccc1)C(=O)C(=O)NCC(=O)NCCc1ccccc1)C(=O)[C@@H](CCCN=C(N)N)NS(=O)(=O)Cc1ccccc1.O=C(O)C(F)(F)F,7.89
8,CN(CC(=O)N[C@@H](CC1CCCCC1)C(=O)C(=O)NCCc1ccccc1)C(=O)[C@@H](CCCN=C(N)N)NS(=O)(=O)Cc1ccccc1,13.2
9,CN(CC(=O)N[C@@H](CC1CCCCC1)C(=O)C(=O)NCc1ccc2c(c1)OCO2)C(=O)[C@@H](CC/N=C(\N)N[N+](=O)[O-])NS(=O)(=O)Cc1ccccc1,46.4
10,CN(CC(=O)N[C@@H](CC1CCCCC1)C(=O)C(=O)NCc1ccccc1)C(=O)[C@@H](CCCN=C(N)N)NS(=O)(=O)Cc1ccccc1,3.26

# Molecular target: T3, Plasminogen (Homo sapiens, UniProt P00747)
# Assay: In vitro inhibitory activity against plasmin; inactive
# T3 sequence (P00747 97-580 limits assumed): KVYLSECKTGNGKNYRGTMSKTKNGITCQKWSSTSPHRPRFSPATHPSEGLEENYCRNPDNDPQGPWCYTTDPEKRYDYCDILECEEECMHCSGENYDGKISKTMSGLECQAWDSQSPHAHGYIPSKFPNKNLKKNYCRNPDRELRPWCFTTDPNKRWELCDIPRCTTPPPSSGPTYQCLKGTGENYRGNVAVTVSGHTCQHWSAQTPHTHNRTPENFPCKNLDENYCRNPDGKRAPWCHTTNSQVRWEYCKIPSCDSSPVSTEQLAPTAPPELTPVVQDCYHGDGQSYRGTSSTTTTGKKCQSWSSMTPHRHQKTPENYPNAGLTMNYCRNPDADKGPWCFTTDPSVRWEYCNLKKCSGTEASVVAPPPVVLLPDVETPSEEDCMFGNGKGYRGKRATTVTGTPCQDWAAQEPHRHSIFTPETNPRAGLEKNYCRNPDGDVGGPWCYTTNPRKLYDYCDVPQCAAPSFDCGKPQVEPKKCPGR
# T3 sequence (P00747 581-810 limits assumed): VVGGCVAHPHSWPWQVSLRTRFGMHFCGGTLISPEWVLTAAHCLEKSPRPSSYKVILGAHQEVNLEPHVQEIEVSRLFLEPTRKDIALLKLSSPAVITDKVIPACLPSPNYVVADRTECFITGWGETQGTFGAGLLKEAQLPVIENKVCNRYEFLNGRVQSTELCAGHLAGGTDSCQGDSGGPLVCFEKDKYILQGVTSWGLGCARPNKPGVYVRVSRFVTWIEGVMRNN
row,Compound,IC50
1,CCOC(=O)CNC(=O)C(=O)[C@H](CC1CCCCC1)NC(=O)CN(C)C(=O)[C@@H](CCCN=C(N)N)NS(=O)(=O)Cc1ccccc1,Not Active
2,CCOC(=O)CNC(=O)C(=O)[C@H](Cc1ccccc1)NC(=O)CN(C)C(=O)[C@@H](CCCN=C(N)N)NS(=O)(=O)Cc1ccccc1,Not Active
3,CCOC(=O)CNC(=O)C(=O)[C@H](Cc1ccc(O)cc1)NC(=O)CN(C)C(=O)[C@@H](CCCN=C(N)N)NS(=O)(=O)Cc1ccccc1.O=C(O)C(F)(F)F,Not Active
4,CN(CC(=O)N[C@@H](Cc1ccccc1)C(=O)C(=O)NCC(=O)NCCc1ccccc1)C(=O)[C@@H](CCCN=C(N)N)NS(=O)(=O)Cc1ccccc1.O=C(O)C(F)(F)F,Not Active
5,CN(CC(=O)N[C@@H](CC1CCCCC1)C(=O)C(=O)NCCc1ccccc1)C(=O)[C@@H](CCCN=C(N)N)NS(=O)(=O)Cc1ccccc1,Not Active
6,CN(CC(=O)N[C@@H](CC1CCCCC1)C(=O)C(=O)NCc1ccc2c(c1)OCO2)C(=O)[C@@H](CC/N=C(\N)N[N+](=O)[O-])NS(=O)(=O)Cc1ccccc1,Not Active

# Molecular target: T1, Serine protease 1
# Assay: In vitro inhibitory activity against Human trypsin
row,Compound,IC50 [nM]
1,CCCCCNC(=O)C(=O)[C@H](CC1CCCCC1)NC(=O)CN(C)C(=O)[C@@H](CCCN=C(N)N)NS(=O)(=O)Cc1ccccc1,163
2,CCOC(=O)CNC(=O)C(=O)[C@H](Cc1ccccc1)NC(=O)CN(C)C(=O)[C@@H](CCCN=C(N)N)NS(=O)(=O)Cc1ccccc1,> 2500
3,CN(CC(=O)N[C@H]1CCCC(C(=N)N)C1O)C(=O)[C@@H](CCCN=C(N)N)NS(=O)(=O)Cc1ccccc1 (some centres undefined),74.7
4,CN(CC(=O)N[C@@H](CC1CCCCC1)C(=O)C(=O)NCCc1ccccc1)C(=O)[C@@H](CCCN=C(N)N)NS(=O)(=O)Cc1ccccc1,> 2500
5,CN(CC(=O)N[C@@H](CC1CCCCC1)C(=O)C(=O)NCc1ccccc1)C(=O)[C@@H](CCCN=C(N)N)NS(=O)(=O)Cc1ccccc1,2500

# Molecular target: T2, Coagulation factor X
# Assay: In vitro inhibitory activity against prothrombinase (PTase) complex
# Target sequence in this assay (P00742 whole entry): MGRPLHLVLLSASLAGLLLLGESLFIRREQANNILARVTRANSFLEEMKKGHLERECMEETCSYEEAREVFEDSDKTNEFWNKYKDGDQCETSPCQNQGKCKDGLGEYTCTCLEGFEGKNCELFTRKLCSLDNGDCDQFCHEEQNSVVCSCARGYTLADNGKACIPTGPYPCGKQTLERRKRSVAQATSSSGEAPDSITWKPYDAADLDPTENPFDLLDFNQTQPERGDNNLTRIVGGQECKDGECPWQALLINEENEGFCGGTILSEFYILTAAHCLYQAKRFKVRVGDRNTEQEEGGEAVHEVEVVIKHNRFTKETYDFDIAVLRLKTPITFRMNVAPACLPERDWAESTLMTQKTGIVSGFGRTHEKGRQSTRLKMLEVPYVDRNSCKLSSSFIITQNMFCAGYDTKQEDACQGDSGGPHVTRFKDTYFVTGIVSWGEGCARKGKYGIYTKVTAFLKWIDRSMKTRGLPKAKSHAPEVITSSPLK
row,Compound,IC50 [nM]
1,CCOC(=O)CNC(=O)C(=O)[C@H](Cc1ccccc1)NC(=O)CN(C)C(=O)[C@@H](CCCN=C(N)N)NS(=O)(=O)Cc1ccccc1,25.1
2,CN(CC(=O)N[C@H]1CCCC(C(=N)N)C1O)C(=O)[C@@H](CCCN=C(N)N)NS(=O)(=O)Cc1ccccc1 (some centres undefined),3.4
3,CCOC(=O)CNC(=O)C(=O)[C@H](Cc1ccc(O)cc1)NC(=O)CN(C)C(=O)[C@@H](CCCN=C(N)N)NS(=O)(=O)Cc1ccccc1.O=C(O)C(F)(F)F,29.2
4,CN(CC(=O)N[C@@H](Cc1ccccc1)C(=O)C(=O)NCC(=O)NCCc1ccccc1)C(=O)[C@@H](CCCN=C(N)N)NS(=O)(=O)Cc1ccccc1.O=C(O)C(F)(F)F,25.9

# Molecular target: T4, Prothrombin (Homo sapiens, UniProt P00734)
# Assay: In vitro inhibitory activity against Thrombin (FIIa); inactive
row,Compound,IC50
1,CCOC(=O)CNC(=O)C(=O)[C@H](Cc1ccc(OC(C)(C)C)cc1)NC(=O)CN(C)C(=O)[C@@H](CCCN=C(N)N)NS(=O)(=O)Cc1ccccc1.O=C(O)C(F)(F)F,Not Active

# Molecular target: T3, Plasminogen
# Assay: In vitro inhibitory activity against plasmin
row,Compound,IC50 [nM]
1,CCCCCNC(=O)C(=O)[C@H](CC1CCCCC1)NC(=O)CN(C)C(=O)[C@@H](CCCN=C(N)N)NS(=O)(=O)Cc1ccccc1,> 2500
2,CCOC(=O)CNC(=O)C(=O)[C@H](Cc1ccc(OC(C)(C)C)cc1)NC(=O)CN(C)C(=O)[C@@H](CCCN=C(N)N)NS(=O)(=O)Cc1ccccc1.O=C(O)C(F)(F)F,> 2500
3,CN(CC(=O)N[C@H]1CCCC(C(=N)N)C1O)C(=O)[C@@H](CCCN=C(N)N)NS(=O)(=O)Cc1ccccc1 (some centres undefined),1200
4,CN(CC(=O)N[C@@H](CC1CCCCC1)C(=O)C(=O)NCc1ccccc1)C(=O)[C@@H](CCCN=C(N)N)NS(=O)(=O)Cc1ccccc1,> 2500

# Molecular target: T4, Prothrombin
# Assay: In vitro inhibitory activity against Thrombin (FIIa)
row,Compound,IC50 [nM]
1,CCCCCNC(=O)C(=O)[C@H](CC1CCCCC1)NC(=O)CN(C)C(=O)[C@@H](CCCN=C(N)N)NS(=O)(=O)Cc1ccccc1,3830
2,CCOC(=O)CNC(=O)C(=O)[C@H](CC1CCCCC1)NC(=O)CN(C)C(=O)[C@@H](CCCN=C(N)N)NS(=O)(=O)Cc1ccccc1,> 2500
3,CCOC(=O)CNC(=O)C(=O)[C@H](Cc1ccccc1)NC(=O)CN(C)C(=O)[C@@H](CCCN=C(N)N)NS(=O)(=O)Cc1ccccc1,> 2500
4,CN(CC(=O)N[C@H]1CCCC(C(=N)N)C1O)C(=O)[C@@H](CCCN=C(N)N)NS(=O)(=O)Cc1ccccc1 (some centres undefined),> 2500
5,CCOC(=O)CNC(=O)C(=O)[C@H](Cc1ccc(O)cc1)NC(=O)CN(C)C(=O)[C@@H](CCCN=C(N)N)NS(=O)(=O)Cc1ccccc1.O=C(O)C(F)(F)F,> 2500
6,CN(CC(=O)N[C@@H](Cc1ccccc1)C(=O)C(=O)NCC(=O)NCCc1ccccc1)C(=O)[C@@H](CCCN=C(N)N)NS(=O)(=O)Cc1ccccc1.O=C(O)C(F)(F)F,> 2500
7,CN(CC(=O)N[C@@H](CC1CCCCC1)C(=O)C(=O)NCCc1ccccc1)C(=O)[C@@H](CCCN=C(N)N)NS(=O)(=O)Cc1ccccc1,2210
8,CN(CC(=O)N[C@@H](CC1CCCCC1)C(=O)C(=O)NCc1ccc2c(c1)OCO2)C(=O)[C@@H](CC/N=C(\N)N[N+](=O)[O-])NS(=O)(=O)Cc1ccccc1,> 2500
9,CN(CC(=O)N[C@@H](CC1CCCCC1)C(=O)C(=O)NCc1ccccc1)C(=O)[C@@H](CCCN=C(N)N)NS(=O)(=O)Cc1ccccc1,1960
